A word on the IC50: it is the concentration that gives 50% inhibition.

The results in this text go back to US11370794B2, “Toll-like receptor antagonist compounds and methods of use” (Dynavax Technologies Corporation, priority 2016, dated 2022).

For one assay, the target named is T1, human TLR8 (Homo sapiens, UniProt Q9NR97).
T1 construct: endogenous in cells; host or cells: primary human monocytes (CD14 microbeads) from buffy coats of healthy donors
T1 sequence (Q9NR97 27-1041): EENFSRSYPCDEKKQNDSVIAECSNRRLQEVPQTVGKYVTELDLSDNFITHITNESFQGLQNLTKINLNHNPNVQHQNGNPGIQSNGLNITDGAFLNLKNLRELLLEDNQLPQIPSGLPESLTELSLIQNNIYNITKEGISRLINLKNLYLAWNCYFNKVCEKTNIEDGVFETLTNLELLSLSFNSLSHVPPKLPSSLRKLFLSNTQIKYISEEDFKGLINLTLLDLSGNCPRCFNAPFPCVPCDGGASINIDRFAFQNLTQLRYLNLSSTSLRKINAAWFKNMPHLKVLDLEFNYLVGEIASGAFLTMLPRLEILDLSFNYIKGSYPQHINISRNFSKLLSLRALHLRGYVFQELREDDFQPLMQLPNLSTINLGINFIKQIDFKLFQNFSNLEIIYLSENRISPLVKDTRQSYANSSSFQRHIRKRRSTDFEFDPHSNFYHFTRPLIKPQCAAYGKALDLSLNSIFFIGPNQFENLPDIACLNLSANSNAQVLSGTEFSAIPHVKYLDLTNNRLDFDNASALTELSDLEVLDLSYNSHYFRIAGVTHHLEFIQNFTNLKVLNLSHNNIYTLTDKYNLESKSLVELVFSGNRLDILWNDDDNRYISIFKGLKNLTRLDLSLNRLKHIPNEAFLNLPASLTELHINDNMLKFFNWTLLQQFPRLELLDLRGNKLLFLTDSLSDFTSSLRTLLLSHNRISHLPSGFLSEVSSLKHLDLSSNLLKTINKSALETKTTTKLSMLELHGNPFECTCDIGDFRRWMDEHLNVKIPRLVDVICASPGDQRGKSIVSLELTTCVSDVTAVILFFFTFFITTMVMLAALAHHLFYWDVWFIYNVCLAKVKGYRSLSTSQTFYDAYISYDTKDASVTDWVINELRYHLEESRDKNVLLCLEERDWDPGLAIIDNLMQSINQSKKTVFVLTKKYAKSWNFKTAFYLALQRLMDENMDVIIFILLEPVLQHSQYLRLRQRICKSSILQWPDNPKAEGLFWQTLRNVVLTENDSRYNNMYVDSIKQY
As to the kind of experiment: Inhibition of human TLR8 in human monocytes (TNF-alpha / IL-1 beta ELISA). The format is cell-based. Particulars: human monocytes, agonist ORN8L 100 μg/mL, 24 hours. The method, boiled down: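 Primary human monocytes from donor buffy coats (~200,000 cells/well) given serially diluted compound, then ORN8L RNA oligonucleotide agonist at 100 μg/mL final. After 24 h at 37 °C, supernatant TNF-alpha and/or IL-1 beta measured by ELISA; IC50 from the concentration-response of cytokine release.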

The next assay has as its target T2, human TLR9 (Homo sapiens, UniProt Q9NR96).
T2 construct: endogenous in cells; host or cells: primary human B cells (CD19 microbeads) from buffy coats of healthy donors
T2 sequence (Q9NR96 26-1032): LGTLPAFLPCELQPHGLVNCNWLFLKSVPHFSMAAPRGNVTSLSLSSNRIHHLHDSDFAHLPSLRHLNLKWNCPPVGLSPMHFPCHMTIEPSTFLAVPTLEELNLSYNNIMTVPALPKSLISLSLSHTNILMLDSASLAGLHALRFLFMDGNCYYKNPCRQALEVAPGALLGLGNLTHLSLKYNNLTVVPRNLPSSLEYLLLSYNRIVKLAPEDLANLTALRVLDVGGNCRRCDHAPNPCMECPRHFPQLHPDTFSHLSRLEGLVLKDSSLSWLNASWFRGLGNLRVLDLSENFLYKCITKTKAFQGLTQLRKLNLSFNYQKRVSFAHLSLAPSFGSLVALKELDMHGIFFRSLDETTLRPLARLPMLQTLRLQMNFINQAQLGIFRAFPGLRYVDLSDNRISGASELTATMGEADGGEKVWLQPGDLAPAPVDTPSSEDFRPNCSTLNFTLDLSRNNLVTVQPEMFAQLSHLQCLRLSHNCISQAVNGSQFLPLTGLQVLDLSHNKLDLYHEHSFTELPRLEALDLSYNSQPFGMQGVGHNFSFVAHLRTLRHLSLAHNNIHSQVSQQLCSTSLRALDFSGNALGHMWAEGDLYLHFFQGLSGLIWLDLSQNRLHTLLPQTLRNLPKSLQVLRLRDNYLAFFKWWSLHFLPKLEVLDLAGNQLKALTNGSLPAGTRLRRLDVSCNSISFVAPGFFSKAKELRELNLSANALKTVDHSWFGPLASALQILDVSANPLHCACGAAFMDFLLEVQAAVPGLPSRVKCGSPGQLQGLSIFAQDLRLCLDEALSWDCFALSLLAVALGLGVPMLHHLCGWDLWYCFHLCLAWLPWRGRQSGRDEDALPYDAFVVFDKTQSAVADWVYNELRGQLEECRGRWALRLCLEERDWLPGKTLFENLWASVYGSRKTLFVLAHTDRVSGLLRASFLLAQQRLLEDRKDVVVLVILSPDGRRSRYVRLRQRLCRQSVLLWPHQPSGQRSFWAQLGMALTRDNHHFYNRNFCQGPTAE
As to the kind of experiment: Inhibition of human TLR9 in human B cells (IL-6 ELISA). In kind it is cell-based. The conditions noted are these: for IC50: human B cells, agonist 1018 ISS 1 μM, IL-6 readout, 48 hours, range about 0.01 to 10 μM, read-out: Human TLR9 IC50. The method, boiled down: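 Primary human B cells (CD19-isolated from donor buffy coats), ~300,000 per well, treated with compound (about 0.01–10 μM, some 0.001–30 μM) then 1 μM CpG oligonucleotide 1018 ISS. After 48 hours at 37° C, supernatant IL-6 measured by ELISA; IC50 from concentration-response of TLR9-dependent activity.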
(In general: An ELISA detects its analyte on a solid surface through an enzyme-linked reagent.)

Where [1] appears, read: TNF-alpha readout, read-out: Human TLR8 IC50 TNF-a.
Where [2] appears, read: IL-1 beta readout, read-out: Human TLR8 IC50 IL-1b.

The structures appear in SMILES notation. Like-named read-outs stand apart in the source and are kept apart here.

Consider `Cc1ccc(-n2nc3c(N4CCCC(C(=O)NCCNc5ccccc5)C4)nnc(C)c3c2C)cc1` (stereo not shown) [compound 58, 1-(3,4-dimethyl-2-(p-tolyl)-2H-pyrazolo[3,4-d]pyridazin-7-yl)-N-(2-(phenylamino)ethyl)piperidine-3-carboxamide], for which the results for the IC50 at human TLR8 (setting [1]) and on human TLR9 were at least 20000 nM and 4820 nM, respectively.
The corresponding values for `Cc1ccc(-n2nc3c(N4CCCC(C(=O)NCCN(C)C)C4)nnc(C)c3c2C)cc1` (stereo not shown) [45x, 1-(3,4-dimethyl-2-(p-tolyl)-2H-pyrazolo[3,4-d]pyridazin-7-yl)-N-(2-(dimethylamino)ethyl)piperidine-3-carboxamide] are at least 20000 nM and 9 nM.
Regarding `CCN1CCN(C(=O)C2CCN(c3nncc4cn(-c5ccc(C)cc5)nc34)CC2)CC1` [compound 40, (4-ethylpiperazin-1-yl)(1-(2-(p-tolyl)-2H-pyrazolo[3,4-d]pyridazin-7-yl)piperidin-4-yl)methanone], the IC50 is 226 nM on human TLR8 (setting [1]) and 26 nM on human TLR9.
As to `Cc1nnc(N2CCC(C(=O)NCCN3CCOCC3)CC2)c2nn(-c3ccccc3)c(C)c12` [32x, 1-(3,4-dimethyl-2-phenyl-2H-pyrazolo[3,4-d]pyridazin-7-yl)-N-(2-morpholinoethyl)piperidine-4-carboxamide], the IC50 on human TLR8 (setting [2]) was over 10000 nM; at human TLR8 (setting [1]), over 10000 nM; on human TLR9, 341 nM.
Turning to `Cc1ccc(-n2nc3c(N4CCC(C(=O)NCCN(C)C)CC4)nnc(C)c3c2C(F)(F)F)cc1` [compound 63, N-(2-(dimethylamino)ethyl)-1-(4-methyl-2-(p-tolyl)-3-(trifluoromethyl)-2H-pyrazolo[3,4-d]pyridazin-7-yl)piperidine-4-carboxamide], the results for the IC50 on human TLR8 (setting [1]) and at human TLR9 were at least 20000 nM and 5580 nM, respectively.
Consider `Cc1ccc(-n2nc3c(N4CCC(C(=O)NCCCN5CCC5)CC4)nnc(C)c3c2C)cc1` [Compound No. 11, N-(3-(azetidin-1-yl)propyl)-1-(3,4-dimethyl-2-(p-tolyl)-2H-pyrazolo[3,4-d]pyridazin-7-yl)piperidine-4-carboxamide], for which the values for the half-inhibitory concentration (IC50) at human TLR8 (setting [2]), at human TLR8 (setting [1]) and on human TLR9 were over 10000 nM, over 10000 nM and 379 nM, respectively.
As to `CNC(=O)C1CCN(c2nnc(C)c3c(C)n(-c4ccc(C)cc4)nc23)C1` (stereo not shown) [compound 57, 1-(3,4-dimethyl-2-(p-tolyl)-2H-pyrazolo[3,4-d]pyridazin-7-yl)-N-methylpyrrolidine-3-carboxamide], the results for the IC50 on human TLR8 (setting [1]) and on human TLR9 were at least 20000 nM and 9370 nM, respectively.
For `Cc1ccc(-n2nc3c(N4CCC(C(=O)NCCCN5CCCc6ccccc65)CC4)nnc(C)c3c2C)cc1` [2-5], the IC50 at human TLR8 (setting [2]), on human TLR8 (setting [1]) and at human TLR9 was over 10000 nM throughout.
In the case of `Cc1nnc(N2CCCC(C(=O)NCCCN3CCOCC3)C2)c2nn(-c3ccccc3)c(C)c12` (stereo not shown) [49x, 1-(3,4-dimethyl-2-phenyl-2H-pyrazolo[3,4-d]pyridazin-7-yl)-N-(3-morpholinopropyl)piperidine-3-carboxamide], the results for the IC50 on human TLR8 (setting [2]), at human TLR8 (setting [1]) and at human TLR9 were 3940 nM, 3560 nM and 29 nM, respectively.
In the case of `Cc1ccc(-n2nc3c(N4CCC(C(=O)NCC(C)(C)CN)CC4)nnc(C)c3c2C)cc1` [Compound No. 7, N-(3-amino-2,2-dimethylpropyl)-1-(3,4-dimethyl-2-(p-tolyl)-2H-pyrazolo[3,4-d]pyridazin-7-yl)piperidine-4-carboxamide], the values for the IC50 at human TLR8 (setting [2]), on human TLR8 (setting [1]) and at human TLR9 were over 10000 nM, over 10000 nM and 360 nM, respectively.
In the case of `CCN(CC)CCCNC(=O)C1CCN(c2nnc(C)c3c(C)n(-c4ccccc4)nc23)CC1` [7x, N-(3-(diethylamino)propyl)-1-(3,4-dimethyl-2-phenyl-2H-pyrazolo[3,4-d]pyridazin-7-yl)piperidine-4-carboxamide], the IC50 at human TLR8 (setting [2]) was over 10000 nM; on human TLR8 (setting [1]), over 10000 nM; at human TLR9 it was 368 nM.
With `CCCN1CCN(C(=O)C2CCCN(c3nnc(C)c4c(C)n(-c5ccccc5)nc34)C2)CC1` (stereo not shown) [63x, (1-(3,4-dimethyl-2-phenyl-2H-pyrazolo[3,4-d]pyridazin-7-yl)piperidin-3-yl)(4-propylpiperazin-1-yl)methanone], the results for the IC50 at human TLR8 (setting [2]), on human TLR8 (setting [1]) and at human TLR9 were 1010 nM, 1120 nM and 18 nM, respectively.
Take `Cc1ccc(-n2nc3c(N4CCC(C(=O)N5CCC6(CN(C)C6)C5)CC4)nnc(C)c3c2C)cc1` [compound 75, (1-(3,4-dimethyl-2-(p-tolyl)-2H-pyrazolo[3,4-d]pyridazin-7-yl)piperidin-4-yl)(2-methyl-2,6-diazaspiro[3.4]octan-6-yl)methanone]: the concentration for half-maximal inhibition (IC50) is at least 20000 nM on human TLR8 (setting [1]) and 25 nM at human TLR9.
On to `Cc1ccc(-n2cc3cnnc(N4CCC(C(=O)N5CCC(CN(C)C)C5)CC4)c3n2)cc1` (stereo not shown) [compound 60, (3-((dimethylamino)methyl)pyrrolidin-1-yl)(1-(2-(p-tolyl)-2H-pyrazol[3,4-d]pyridazin-7-yl)piperidin-4-yl)methanone], for which the IC50 was determined as 980 nM at human TLR8 (setting [1]) and 2 nM on human TLR9.
As to `Cc1ccc(-n2nc3c(N4CCC(C(=O)N5CC6CN(C)CC6C5)CC4)nnc(C)c3c2C)cc1` (stereo not shown) [compound 72, (1-(3,4-dimethyl-2-(p-tolyl)-2H-pyrazolo[3,4-d]pyridazin-7-yl)piperidin-4-yl)(5-methylhexahydropyrrolo[3,4-c]pyrrol-2(1H)-yl)methano], the concentration for half-maximal inhibition (IC50) on human TLR8 (setting [1]) worked out at 9170 nM; on human TLR9 it was 12 nM.
For `Cc1ccc(-n2nc3c(N4CCC(CC(=O)NCCCN(C)C)CC4)nnc(C)c3c2C)cc1` [Compound No. 22, 2-(1-(3,4-dimethyl-2-(p-tolyl)-2H-pyrazolo[3,4-d]pyridazin-7-yl)piperidin-4-yl)-N-(3-(dimethylamino)propyl)acetamide], the IC50 on human TLR8 (setting [2]) is over 10000 nM; at human TLR8 (setting [1]), over 10000 nM; on human TLR9 it was 31 nM. The “inhibits TLR9-dependent responses (in words)” value against human TLR9 (summary statement of the description) is “inhibit”.
In the case of `Cc1ccc(-n2nc3c(N4CCC(C(=O)NCCCN5CCCC5)CC4)nnc(C)c3c2C)cc1` [15x, 1-(3,4-dimethyl-2-(p-tolyl)-2H-pyrazolo[3,4-d]pyridazin-7-yl)-N-(3-(pyrrolidin-1-yl)propyl)piperidine-4-carboxamide], the IC50 stood at 4600 nM on human TLR8 (setting [1]) and 408 nM on human TLR9.
